Laboratory results: the supplement of paper PMC11208160

assay: recombinant UMI read abundance after kanamycin selection (control-corrected) (log10(CPM+1)); higher = more efficient recombination; extreme values may be limits of the assay; sequences stand for … in AGTGCAGAGAAAATCGGCCAGTTTTCTCTGCCTGCAGTCCGCATGCCGTGGGACCCCTTGGGTTCTAACCTGTTGCCTAGATTTATGCAGCGGACTGCCTTTCTCCCAAAGTGATAAACCGG…AGGTTGGTTTCACT; site = the 11-nt donor
Protocol: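 Pooled E. coli donor-specificity screen for the IS621 bridge recombinase. Each library member carries a reprogrammed 11-nt donor and a full-length LE bridge RNA expressed in cis from the natural promoter, with a paired donor-binding loop (8-nt LDG + 4-nt RDG) and a target-binding loop fixed to T5. It is co-electroporated with a T5 target plasmid; recombinase is induced with 0.07 mM IPTG and recombinants are selected on kanamycin. UMIs are counted as CPM, averaged over two biological replicates and corrected by the unselected control. Molecule = full bridge RNA written as DNA, built from the T5 scaffold: LDG = donor specificity nt 1-8, RDG = reverse complement of nt 8-11.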
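Also: IS621 bridge recombinase in Escherichia coli cells against a fixed T5 target plasmid.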

Row | Sequence | recombinant UMI read abundance (log10)
1 | ACACATTCATGGACCGGTTTTCCCGGTAATCCGTATTTGAC (site ACACATGCTGT) | 0
2 | ACACATTCATGGACCGGTTTTCCCGGTAATCCGTATTTGAC (site ACACATTCTGT) | 2.74
3 | ACACCAGCATGGACCGGTTTTCCCGGTAATCCGTATTTGAT (site ACACCAGCTAT) | 2.01
4 | ACACCCACATGGACCGGTTTTCCCGGTAATCCGTATTTGAG (site ACACCCACTCT) | 1.37
5 | ACACGAACATGGACCGGTTTTCCCGGTAATCCGTATTTGTC (site AAACGAACTGA) | 0
6 | ACACGAACATGGACCGGTTTTCCCGGTAATCCGTATTTGTC (site ACAAGAACTGA) | 0
7 | ACACGAACATGGACCGGTTTTCCCGGTAATCCGTATTTGTC (site ACACAAACTGA) | 1.4
8 | ACACGAACATGGACCGGTTTTCCCGGTAATCCGTATTTGTC (site ACACCAACTGA) | 0
9 | ACACGAACATGGACCGGTTTTCCCGGTAATCCGTATTTGTC (site ACACGAACTAA) | 1.83
10 | ACACGAACATGGACCGGTTTTCCCGGTAATCCGTATTTGTC (site ACACGAACTCA) | 0.338
11 | ACACGAACATGGACCGGTTTTCCCGGTAATCCGTATTTGTC (site ACACGAACTGA) | 2.77
12 | ACACGAACATGGACCGGTTTTCCCGGTAATCCGTATTTGTC (site ACACGAACTGC) | 0
13 | ACACGAACATGGACCGGTTTTCCCGGTAATCCGTATTTGTC (site ACACGAACTGG) | 1.74
14 | ACACGAACATGGACCGGTTTTCCCGGTAATCCGTATTTGTC (site ACACGAACTGT) | 1.41
15 | ACACGAACATGGACCGGTTTTCCCGGTAATCCGTATTTGTC (site ACACGAACTTA) | 1.96
16 | ACACGAACATGGACCGGTTTTCCCGGTAATCCGTATTTGTC (site ACACGACCTGA) | 0
17 | ACACGAACATGGACCGGTTTTCCCGGTAATCCGTATTTGTC (site ACACGAGCTGA) | 0
18 | ACACGAACATGGACCGGTTTTCCCGGTAATCCGTATTTGTC (site ACACGATCTGA) | 1.55
19 | ACACGAACATGGACCGGTTTTCCCGGTAATCCGTATTTGTC (site ACACGCACTGA) | 0
20 | ACACGAACATGGACCGGTTTTCCCGGTAATCCGTATTTGTC (site ACACGGACTGA) | 1.61
21 | ACACGAACATGGACCGGTTTTCCCGGTAATCCGTATTTGTC (site ACACGTACTGA) | 0
22 | ACACGAACATGGACCGGTTTTCCCGGTAATCCGTATTTGTC (site ACACTAACTGA) | 0
23 | ACACGAACATGGACCGGTTTTCCCGGTAATCCGTATTTGTC (site ACAGGAACTGA) | 0
24 | ACACGAACATGGACCGGTTTTCCCGGTAATCCGTATTTGTC (site ACATGAACTGA) | 0

Row | Sequence | recombinant UMI read abundance (log10)
25 | ACACGAACATGGACCGGTTTTCCCGGTAATCCGTATTTGTC (site ACCCGAACTGA) | 0
26 | ACACGAACATGGACCGGTTTTCCCGGTAATCCGTATTTGTC (site ACGCGAACTGA) | 0
27 | ACACGAACATGGACCGGTTTTCCCGGTAATCCGTATTTGTC (site ACTCGAACTGA) | 0.747
28 | ACACGAACATGGACCGGTTTTCCCGGTAATCCGTATTTGTC (site AGACGAACTGA) | 0
29 | ACACGAACATGGACCGGTTTTCCCGGTAATCCGTATTTGTC (site ATACGAACTGA) | 0.0105
30 | ACACGAACATGGACCGGTTTTCCCGGTAATCCGTATTTGTC (site CCACGAACTGA) | 0.924
31 | ACACGAACATGGACCGGTTTTCCCGGTAATCCGTATTTGTC (site GCACGAACTGA) | 0
32 | ACACGAACATGGACCGGTTTTCCCGGTAATCCGTATTTGTC (site TCACGAACTGA) | 0
33 | ACACGGACATGGACCGGTTTTCCCGGTAATCCGTATTTGGC (site ACACGGACTGC) | 2.58
34 | ACACGTACATGGACCGGTTTTCCCGGTAATCCGTATTTGTC (site ACACGAACTGA) | 0
35 | ACACGTACATGGACCGGTTTTCCCGGTAATCCGTATTTGTC (site ACACGCACTGA) | 0.199
36 | ACACGTACATGGACCGGTTTTCCCGGTAATCCGTATTTGTC (site ACACGGACTGA) | 0
37 | ACACGTACATGGACCGGTTTTCCCGGTAATCCGTATTTGTC (site ACACGTACTGA) | 1.49
38 | ACAGACACATGGACCGGTTTTCCCGGTAATCCGTATTTGTC (site ACAGACACTGA) | 2.7
39 | ACAGACCCATGGACCGGTTTTCCCGGTAATCCGTATTTGCC (site ACAGACCCTGG) | 1.2
40 | ACAGCATCATGGACCGGTTTTCCCGGTAATCCGTATTTGCG (site ACAGCATCTCG) | 2.33
41 | ACAGCATCATGGACCGGTTTTCCCGGTAATCCGTATTTGCG (site ACAGTATCTTG) | 0
42 | ACAGCTTCATGGACCGGTTTTCCCGGTAATCCGTATTTGCA (site ACAGCTTCTTG) | 2.59
43 | ACAGCTTCATGGACCGGTTTTCCCGGTAATCCGTATTTGCA (site ACAGTATCTTG) | 2.16
44 | ACAGTACCATGGACCGGTTTTCCCGGTAATCCGTATTTGAA (site ACAGTACCTTT) | 0.501
45 | ACAGTACCATGGACCGGTTTTCCCGGTAATCCGTATTTGAA (site ACAGTATCTTG) | 0
46 | ACAGTATCATGGACCGGTTTTCCCGGTAATCCGTATTTGCA (site AAAATATCTTG) | 1.79
47 | ACAGTATCATGGACCGGTTTTCCCGGTAATCCGTATTTGCA (site AAAGAATCTTG) | 1.57
48 | ACAGTATCATGGACCGGTTTTCCCGGTAATCCGTATTTGCA (site AAAGTAACTTG) | 0.587

Row | Sequence | recombinant UMI read abundance (log10)
49 | ACAGTATCATGGACCGGTTTTCCCGGTAATCCGTATTTGCA (site AAAGTATCTAG) | 0
50 | ACAGTATCATGGACCGGTTTTCCCGGTAATCCGTATTTGCA (site AAAGTATCTTC) | 0.00296
51 | ACAGTATCATGGACCGGTTTTCCCGGTAATCCGTATTTGCA (site AAAGTATCTTG) | 2.1
52 | ACAGTATCATGGACCGGTTTTCCCGGTAATCCGTATTTGCA (site AAAGTCTCTTG) | 0.0144
53 | ACAGTATCATGGACCGGTTTTCCCGGTAATCCGTATTTGCA (site AACGTATCTTG) | 2.46
54 | ACAGTATCATGGACCGGTTTTCCCGGTAATCCGTATTTGCA (site ACAAAATCTTG) | 0.724
55 | ACAGTATCATGGACCGGTTTTCCCGGTAATCCGTATTTGCA (site ACAATAACTTG) | 0
56 | ACAGTATCATGGACCGGTTTTCCCGGTAATCCGTATTTGCA (site ACAATATCTAG) | 0.00607
57 | ACAGTATCATGGACCGGTTTTCCCGGTAATCCGTATTTGCA (site ACAATATCTTC) | 0.00345
58 | ACAGTATCATGGACCGGTTTTCCCGGTAATCCGTATTTGCA (site ACAATATCTTG) | 2.8
59 | ACAGTATCATGGACCGGTTTTCCCGGTAATCCGTATTTGCA (site ACAATCTCTTG) | 0
60 | ACAGTATCATGGACCGGTTTTCCCGGTAATCCGTATTTGCA (site ACACCATCTTG) | 0.786
61 | ACAGTATCATGGACCGGTTTTCCCGGTAATCCGTATTTGCA (site ACACTAGCTTG) | 0.00526
62 | ACAGTATCATGGACCGGTTTTCCCGGTAATCCGTATTTGCA (site ACACTATCTCG) | 0
63 | ACAGTATCATGGACCGGTTTTCCCGGTAATCCGTATTTGCA (site ACACTATCTTA) | 0
64 | ACAGTATCATGGACCGGTTTTCCCGGTAATCCGTATTTGCA (site ACACTATCTTG) | 1.61
65 | ACAGTATCATGGACCGGTTTTCCCGGTAATCCGTATTTGCA (site ACACTTTCTTG) | 0
66 | ACAGTATCATGGACCGGTTTTCCCGGTAATCCGTATTTGCA (site ACAGAAACTTG) | 0
67 | ACAGTATCATGGACCGGTTTTCCCGGTAATCCGTATTTGCA (site ACAGAATCTAG) | 0
68 | ACAGTATCATGGACCGGTTTTCCCGGTAATCCGTATTTGCA (site ACAGAATCTTC) | 0.287
69 | ACAGTATCATGGACCGGTTTTCCCGGTAATCCGTATTTGCA (site ACAGAATCTTG) | 2.53
70 | ACAGTATCATGGACCGGTTTTCCCGGTAATCCGTATTTGCA (site ACAGACTCTTG) | 1.68
71 | ACAGTATCATGGACCGGTTTTCCCGGTAATCCGTATTTGCA (site ACAGCAGCTTG) | 0.00322
72 | ACAGTATCATGGACCGGTTTTCCCGGTAATCCGTATTTGCA (site ACAGCATCTCG) | 0.00554
